This assay concerns the target T1, cloned human MC4R (Homo sapiens, UniProt P32245).
T1 construct: made in house; host or cells: Hi5 insect cells (baculovirus infection); membrane preparation
Description: Membrane binding assay: competitive inhibition of [125I]NDP-α-MSH binding. The following applies: for inhibition at 10 µM / Displacement Rate (%) (at 10 μM): [125I]NDP-α-MSH displacement; for inhibition at 10 µM: read-out: Displacement Rate (%) (at 10 μM); for IC50: read-out: MC4R IC50.

One may read the IC50 as the concentration needed to halve the response being measured.

T1 sequence (P32245 whole entry): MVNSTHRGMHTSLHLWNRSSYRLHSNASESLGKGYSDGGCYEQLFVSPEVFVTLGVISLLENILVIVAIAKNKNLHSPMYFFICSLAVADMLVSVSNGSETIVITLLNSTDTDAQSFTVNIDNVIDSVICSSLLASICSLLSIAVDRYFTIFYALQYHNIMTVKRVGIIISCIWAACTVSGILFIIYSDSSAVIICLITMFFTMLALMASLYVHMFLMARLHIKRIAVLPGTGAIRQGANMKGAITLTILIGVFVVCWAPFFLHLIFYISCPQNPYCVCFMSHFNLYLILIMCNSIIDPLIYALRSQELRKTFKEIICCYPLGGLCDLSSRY

As for `N[C@@H](Cc1ccc(OCc2ccccc2)cc1)C(=O)N1CCN(C2CCCC2)CC1` [Example 158], the inhibition at 10 µM fell in the range of 35 to 70% and the IC50 was over 3000 nM.

Consider `N[C@@H](Cc1ccc(OCc2ccc3ccccc3c2)cc1)C(=O)N1CCN(Cc2cccc(Cl)c2Cl)CC1` [Example 217], for which the “Displacement Rate (%) (at 10 μM)” value was “+++ (+++ = 91-100)” and the half-maximal inhibitory concentration (IC50) is under 1500 nM.

On to `N[C@@H](Cc1ccc(OCc2ccccc2)cc1)C(=O)N1CCN(Cc2ccccc2[N+](=O)[O-])CC1` [Example 111], for which the inhibition at 10 µM is 71 to 90% and the IC50 is over 3000 nM.

Turning to `CC(c1ccccc1)N1CCN(C(=O)[C@@H](N)Cc2ccc(OCc3ccccc3)cc2)CC1` (stereo partly shown) [Example 157], the inhibition at 10 µM was in the range of 35 to 70% and the IC50 is over 3000 nM.

For `N[C@@H](Cc1ccc(-c2ccc3ccccc3c2)cc1)C(=O)N1CCN(Cc2cccc(Cl)c2Cl)CC1` [Example 293], the inhibition at 10 µM lay within 91 to 100% and the IC50 was under 1500 nM.

With `CC(=O)c1cccc(-c2ccc(C[C@H](N)C(=O)N3CCN(Cc4cccc(Cl)c4Cl)CC3)cc2)c1` [Example 328], the inhibition at 10 µM was 71 to 90% and the IC50 fell in the range of 1500 to 3000 nM.

Consider `CSc1ccc(-c2ccc(C[C@H](N)C(=O)N3CCN(Cc4cccc(Cl)c4Cl)CC3)cc2)cc1` [Example 295], for which the inhibition at 10 µM was in the range of 91 to 100% and the half-inhibitory concentration (IC50) is under 1500 nM.

Take `N[C@@H](Cc1ccc(OCc2ccccc2)cc1)C(=O)N1CCCN(C2CCN(Cc3ccccc3)CC2)CC1` [Example 73]: the inhibition at 10 µM lay within 35 to 70% and the 50% inhibitory concentration (IC50) was over 3000 nM.

For `N[C@@H](Cc1ccc(OCc2ccccc2)cc1)C(=O)N1CCN(Cc2ccc3ccccc3c2)CC1` [Example 105], the inhibition at 10 µM lay in the range of 71 to 90% and the IC50 was under 1500 nM.

On to `N[C@@H](Cc1ccc(OCc2ccc(Cl)cc2)cc1)C(=O)N1CCN(Cc2cccc(Cl)c2Cl)CC1` [Example 183], for which the “Displacement Rate (%) (at 10 μM)” value is “+++ (+++ = 91-100)” and the concentration for half-maximal inhibition (IC50) is under 1500 nM.

As for `CCOc1ccc(CN2CCCN(C(=O)[C@@H](N)Cc3ccc(OCc4ccccc4)cc3)CC2)c(OCC)c1C` [Example 24], the inhibition at 10 µM was in the range of 91 to 100% and the IC50 is under 1500 nM.

As for `CSc1ccc(COc2ccc(C[C@H](N)C(=O)N3CCN(Cc4cccc(Cl)c4Cl)CC3)cc2)cc1` [Example 224], the “Displacement Rate (%) (at 10 μM)” value is “++ (++ = 71-90)” and the half-maximal inhibitory concentration (IC50) was 1500 to 3000 nM.

`N[C@@H](Cc1ccc(OCc2c3ccccc3cc3ccccc23)cc1)C(=O)N1CCN(Cc2cccc(Cl)c2Cl)CC1` [Example 232]: the “Displacement Rate (%) (at 10 μM)” value is recorded as “++ (++ = 71-90)” and the IC50 is over 3000 nM.

As to `N[C@@H](Cc1ccc(OCc2ccccc2)cc1)C(=O)N1CCN(Cc2cccc(Oc3ccccc3)c2)CC1` [Example 103], the inhibition at 10 µM fell in the range of 91 to 100% and the half-maximal inhibitory concentration (IC50) is under 1500 nM.

`N[C@@H](Cc1ccc(OCc2ccccc2)cc1)C(=O)N1CCN(Cc2ccc(Br)cc2)CC1` [Example 129]: the inhibition at 10 µM was in the range of 35 to 70% and the IC50 is over 3000 nM.

On to `N[C@@H](Cc1ccc(OCc2cccc(F)c2)cc1)C(=O)N1CCN(Cc2cccc(Cl)c2Cl)CC1` [Example 180], for which the “Displacement Rate (%) (at 10 μM)” value is “+++ (+++ = 91-100)” and the half-maximal inhibitory concentration (IC50) is under 1500 nM.

For the compound `COc1ccc(Cl)cc1-c1ccc(C[C@H](N)C(=O)N2CCN(Cc3cccc(Cl)c3Cl)CC2)cc1` [Example 327], the “Displacement Rate (%) (at 10 μM)” value is recorded as “+++ (+++ = 91-100)” and the IC50 was in the range of 1500 to 3000 nM.

Take `N[C@@H](Cc1ccc(OCc2ccccc2)cc1)C(=O)N1CCCN(Cc2ccccc2Cl)CC1` [Example 57]: the inhibition at 10 µM is 35 to 70% and the half-inhibitory concentration (IC50) was over 3000 nM.

Take `CCc1ccc(COc2ccc(C[C@H](N)C(=O)N3CCN(Cc4cccc(Cl)c4Cl)CC3)cc2)cc1` [Example 220]: the “Displacement Rate (%) (at 10 μM)” value is “+++ (+++ = 91-100)” and the IC50 was under 1500 nM.

Take `CCCCCCCCOc1ccc(CN2CCN(C(=O)[C@@H](N)Cc3ccc(OCc4ccccc4)cc3)CC2)cc1` [Example 133]: the inhibition at 10 µM fell in the range of 35 to 70% and the IC50 is under 1500 nM.

These data come from patent US6916812B2, “Alpha-aminoamide derivatives as melanocortin agonists” (Bristol-Myers Squibb Company, priority 2001, dated 2005).
